Among the test systems are SF-295 CNS; LOX IMVI melanoma; NCI-H522 lung; K-562 leukemia; COLO 205 colon; UACC-62 melanoma; MALME-3M melanoma; SK-MEL-28 melanoma; UACC-257 melanoma; SNB-19 CNS.
Test in all cases: inhibition of tumour cell growth, NCI panel, 48 h

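Five concentrations, 48 hours, 96-well plates. GI50: concentration for 50% inhibition of growth. TGI: concentration producing complete growth inhibition.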

Turning to `N#CCCN(CCC#N)c1ccc(/C=C2\N=C(COc3ccc(Cl)cc3Cl)OC2=O)cc1`, the TGI with SF-295 CNS, in the assay on LOX IMVI melanoma, with NCI-H522 lung, in the assay on K-562 leukemia, in the assay with COLO 205 colon and in the assay with UACC-62 melanoma was more than 100 µM in each case. The TGI in the assay on MALME-3M melanoma, with SK-MEL-28 melanoma, in the assay with UACC-257 melanoma and in the assay with SNB-19 CNS was more than 100 µM throughout.
Turning to `CS(=O)(=O)N(CCC#N)c1ccc(/C=N/NC(=O)CC(=O)Nc2cccc(Cl)c2)cc1`, the TGI in the assay on SF-295 CNS, with LOX IMVI melanoma, with NCI-H522 lung, in the assay on K-562 leukemia, in the assay on COLO 205 colon and with UACC-62 melanoma was more than 100 µM throughout. Moreover, the TGI with MALME-3M melanoma, in the assay with SK-MEL-28 melanoma, with UACC-257 melanoma and in the assay on SNB-19 CNS was more than 100 µM in each case.
With `CSc1ccc(-c2cc(-c3ccc(NC(=O)CCCN4CCCC4)cc3)nc(-c3ccc(NC(=O)CCCN4CCCC4)cc3)c2)cc1`, the GI50 in the assay on SF-295 CNS is 3.29 µM; in the assay with LOX IMVI melanoma, 2.01 µM; with NCI-H522 lung it was 1.91 µM; in the assay with K-562 leukemia, 1.64 µM; in the assay with COLO 205 colon, 2.05 µM; in the assay on UACC-62 melanoma, 11.9 µM. In addition, the GI50 with MALME-3M melanoma was 14 µM; in the assay with SK-MEL-28 melanoma, 3.83 µM; in the assay on UACC-257 melanoma, 4.94 µM; in the assay with SNB-19 CNS it was 4.92 µM. In addition, the TGI was 15.4 µM with SF-295 CNS; 4.18 µM in the assay on LOX IMVI melanoma; 3.59 µM in the assay with NCI-H522 lung; 3.31 µM in the assay on K-562 leukemia; 4.39 µM in the assay on COLO 205 colon; 32.4 µM in the assay with UACC-62 melanoma. In addition, the TGI in the assay with MALME-3M melanoma stood at 42.7 µM; in the assay with SK-MEL-28 melanoma, 20.7 µM; in the assay with UACC-257 melanoma it was 25.2 µM; in the assay with SNB-19 CNS it was 23.8 µM.
Take `COc1ccc(Nc2ccnc(NCCNc3ccnc4cc(Cl)ccc34)n2)cc1`: the GI50 in the assay with SF-295 CNS is 1.03 µM; with LOX IMVI melanoma, 1.44 µM; with NCI-H522 lung, 2.38 µM; in the assay with K-562 leukemia, 1.32 µM; in the assay on COLO 205 colon, 1.45 µM; with UACC-62 melanoma, 1.8 µM. Further, the GI50 is 1.93 µM in the assay with MALME-3M melanoma, 1.65 µM in the assay on SK-MEL-28 melanoma, 1.97 µM in the assay on UACC-257 melanoma and 2.86 µM in the assay on SNB-19 CNS. For the same compound, the TGI with SF-295 CNS stood at 2.78 µM; with LOX IMVI melanoma, 2.96 µM; in the assay on NCI-H522 lung it was 7.8 µM; with K-562 leukemia, 4.75 µM; with COLO 205 colon, 3.24 µM; with UACC-62 melanoma, 3.62 µM. In addition, the TGI was found to be 3.87 µM with MALME-3M melanoma, 3.35 µM in the assay on SK-MEL-28 melanoma, 4.25 µM in the assay on UACC-257 melanoma and 12 µM in the assay with SNB-19 CNS.
Turning to `CCN(CC)c1ccc(N=C2C=C(C(=O)Nc3ccc(S(C)(=O)=O)cc3)C(=O)c3ccccc32)c(C)c1`, the GI50 in the assay with SF-295 CNS is 3.32 µM; with LOX IMVI melanoma it was 7.98 µM; with NCI-H522 lung, 16.7 µM; in the assay on K-562 leukemia, 15.8 µM; with COLO 205 colon, 32.7 µM; in the assay on UACC-62 melanoma it was 0.734 µM. Further, the GI50 was 30.9 µM in the assay on MALME-3M melanoma, more than 100 µM with SK-MEL-28 melanoma, more than 100 µM in the assay on UACC-257 melanoma and 4.39 µM in the assay with SNB-19 CNS. In addition, the TGI in the assay with SF-295 CNS is 39.5 µM; in the assay on LOX IMVI melanoma it was more than 100 µM; with NCI-H522 lung it was more than 100 µM; in the assay on K-562 leukemia, more than 100 µM; in the assay with COLO 205 colon, more than 100 µM; in the assay on UACC-62 melanoma, more than 100 µM. In addition, the TGI with MALME-3M melanoma, in the assay with SK-MEL-28 melanoma, with UACC-257 melanoma and in the assay on SNB-19 CNS was more than 100 µM in each case.
As for `CCON=C1C(C)(C)C(C)(C)C(C)(C)C1(C)C`, the TGI in the assay on SF-295 CNS, with LOX IMVI melanoma, in the assay on NCI-H522 lung, with K-562 leukemia, with COLO 205 colon and in the assay on UACC-62 melanoma was more than 100 µM in each case. Moreover, the TGI in the assay with MALME-3M melanoma, in the assay with SK-MEL-28 melanoma, in the assay with UACC-257 melanoma and with SNB-19 CNS was more than 100 µM in each case.
Regarding `CS(=O)(=O)OCCN1CCN(C(=O)c2cccc3c(Nc4ccc(S(N)(=O)=O)cc4)c4ccccc4nc23)CC1`, the TGI in the assay with SF-295 CNS is more than 100 µM; in the assay with LOX IMVI melanoma it was more than 59.1 µM; with NCI-H522 lung, more than 100 µM; in the assay on K-562 leukemia, more than 81.1 µM; in the assay on COLO 205 colon, more than 82.8 µM; with UACC-62 melanoma, more than 100 µM. Moreover, the TGI with MALME-3M melanoma was more than 100 µM; in the assay on SK-MEL-28 melanoma, more than 100 µM; in the assay with UACC-257 melanoma, more than 100 µM; with SNB-19 CNS, more than 72.6 µM.
On to `O=C(Nc1ncc(Cc2ccccc2)s1)c1ccc2c(c1)OCCCO2`, for which the GI50 with SF-295 CNS is 0.396 µM; in the assay on LOX IMVI melanoma it was 0.323 µM; in the assay with NCI-H522 lung, 1.03 µM; in the assay with K-562 leukemia, 0.254 µM; with COLO 205 colon it was 0.579 µM; with UACC-62 melanoma, 0.302 µM. The GI50 in the assay on MALME-3M melanoma is 0.882 µM; with SK-MEL-28 melanoma, 0.838 µM; in the assay with UACC-257 melanoma it was 1.61 µM; in the assay with SNB-19 CNS it was 1 µM. Further, the TGI in the assay on SF-295 CNS, with LOX IMVI melanoma, in the assay with NCI-H522 lung, with K-562 leukemia, in the assay with COLO 205 colon and with UACC-62 melanoma was more than 100 µM throughout. Moreover, the TGI in the assay with MALME-3M melanoma, in the assay with SK-MEL-28 melanoma, in the assay on UACC-257 melanoma and in the assay on SNB-19 CNS was more than 100 µM throughout.
Take `C[C@@H]1COCCN1c1nc(-c2cnc(N)cc2C(F)F)nc(N2[C@H](C)COC[C@@H]2C)n1`: the GI50 in the assay on SF-295 CNS was 0.116 µM; in the assay with LOX IMVI melanoma, 0.206 µM; with NCI-H522 lung it was 0.267 µM; with K-562 leukemia it was 0.379 µM; in the assay with COLO 205 colon, 0.371 µM; in the assay with UACC-62 melanoma, 0.116 µM. Moreover, the GI50 was 0.0875 µM in the assay on MALME-3M melanoma, 0.255 µM in the assay with SK-MEL-28 melanoma, 0.323 µM with UACC-257 melanoma and 0.405 µM in the assay on SNB-19 CNS. Moreover, the TGI with SF-295 CNS was 1.69 µM; in the assay with LOX IMVI melanoma it was 11.3 µM; with NCI-H522 lung it was 12.8 µM; in the assay with K-562 leukemia, 17.4 µM; in the assay with COLO 205 colon, 12.5 µM; in the assay on UACC-62 melanoma, 2.74 µM. Besides, the TGI stood at 0.867 µM in the assay on MALME-3M melanoma, 11.7 µM with SK-MEL-28 melanoma, 8.05 µM with UACC-257 melanoma and 14.4 µM in the assay on SNB-19 CNS.

The values are drawn from PubChem BioAssay (NCI).
